# According to patent US7842825B2, “Biaryloxymethylarenecarboxylic acids as glycogen synthase activator” (Hoffmann-La Roche Inc., priority 2003, dated 2010):
# System: glycogen synthase
# Experiment: Glycogen Synthase (GS) Assay, in vitro activation of glycogen synthase
# Assay type: biochemical
# Conditions: compound concentration needed to stimulate 200% of the enzyme activity; coupled pyruvate kinase/lactate dehydrogenase assay, absorbance at 340 nm, 37° C
# Procedure: Twelve μl per well of substrate solution containing glycogen (4.32 mg/ml), 21.6 mM UDP-glucose, 21.6 mM phospho(enol)pyruvate and 2.7 mM NADH in 30 mM glycylglycine, pH 7.3 buffer is added into a polystyrene 384-well assay plate (BD Biosciences). Compound solution (8 μl/well) at various concentrations (0-57 μM) in 30 mM glycylglycine, pH 7.3, 40 mM KCl, 20 mM MgCl2 plus 9.2% DMSO are added to the assay plate (columns 5-24). Enzyme solution (12 μl/well) containing glycogen synthase (16.88 μg/ml), pyruvate kinase (0.27 mg/ml), lactate dehydrogenase (0.27 mg/ml) in 50 mM Tris-HCl, pH 8.0, 27 mM DTT and bovine serum albumin (BSA, 0.2 mg/ml) is added to the assay plate (columns 3-24). As a blank control, enzyme solution without glycogen synthase is added into the top half wells of columns 1-2. To the bottom half wells of columns 1-2 are added a known activator, glucose 6-phosphate (18.9 mM) in addition to the enzyme solution. The reaction mixture is incubated at 37° C. The assay plate is then read for absorbance at 340 nm on a Tecan Ultra reader every 3 minutes up to a total of 30 minutes.
# (§1) The enzyme activity (with or without compound) is calculated by the reaction rate and represented by the optical density change (ΔOD) per minute. Percent stimulation of glycogen synthase activity by a compound at various concentrations is calculated by the following formula: % stimulation=100*Rs/Rt,
# where Rs is the reaction rate of the enzyme in the presence of compound and Rt is the reaction rate of the enzyme in the absence of compound.
# SC2.0 is defined as the compound concentration that is needed to stimulate 200% of the enzyme activity.
# Glycogen Synthase (GS) Assay
# The following tests were carried out in order to determine the activity of the compounds of formula (I).
# Twelve μl per well of substrate solution containing glycogen (4.32 mg/ml), 21.6 mM UDP-glucose, 21.6 mM phospho(enol)pyruvate and 2.7 mM NADH in 30 mM glycylglycine, pH 7.3 buffer was added into a polystyrene 384-well assay plate (BD Biosciences). Compound solution (8 μl/well) at various concentrations (0-57 μM) in 30 mM glycylglycine, pH 7.3, 40 mM KCl, 20 mM MgCl2 plus 9.2% DMSO were added to the assay plate (columns 5-24). Enzyme solution (12 μl/well) containing glycogen synthase (16.88 μg/ml), pyruvate kinase (0.27 mg/ml), lactate dehydrogenase (0.27 mg/ml) in 50 mM Tris-HCl, pH 8.0, 27 mM DTT and bovine serum albumin (BSA, 0.2 mg/ml) was added to the assay plate (columns 3-24). As a blank control, enzyme solution without glycogen synthase was added into the top half wells of columns 1-2. To the bottom half wells of columns 1-2 were added a known activator, glucose 6-phosphate (18.9 mM) in addition to the enzyme solution. The reaction mixture was incubated at 37° C. The assay plate was then read for absorbance at 340 nm on a Tecan Ultra reader every 3 minutes up to a total of 30 minutes.
# as §1, with “was” for “is”, “stimulation=100*Rs/Rt, […]” for “stimulation=100*Rs/Rt,”
row,Structure (SMILES),SC2.0 [µM]
1,"O=C(O)c1csc(COc2ccc(-c3ccc(Cl)cc3)cc2)n1 [Example 26, 2-(4′-Chloro-biphenyl-4-yloxymethyl)-thiazole-4-carboxylic acid]",3.1
2,"O=C(O)c1ccc(COc2ccc(-c3ccc(Cl)cc3)cc2)o1 [Example 12, 5-(4′-Chloro-biphenyl-4-yloxymethyl)-furan-2-carboxylic acid]",0.8
3,"O=C(O)c1ccc(COc2cccc(-c3ccccc3)c2)o1 [Example 9, 5-(Biphenyl-3-yloxymethyl)-furan-2-carboxylic acid]",14.9
4,O=C(O)[C@H]1CCCN1C(=O)c1ccc(COc2ccc(-c3ccccc3)cc2)o1 [1-[5-(Biphenyl-4-yloxymethyl)-furan-2-carbonyl]-L-pyrrolidine-2-carboxylic acid],1.4
5,"O=C(O)c1cccc(COc2ccc(-c3ccc(Br)cc3)cc2)c1 [Example 4, 3-(4′-Bromo-biphenyl-4-yloxymethyl)-benzoic acid]",3.8
6,"O=C(O)c1ccccc1COc1ccc(-c2ccccc2)cc1Cl [Example 15, 2-(3-Chloro-biphenyl-4-yloxymethyl)-benzoic acid]",10.3
7,O=C(O)c1ccc(COc2ccc(-c3ccccc3)cc2)s1 [5-(Biphenyl-4-yloxymethyl)-thiophene-2-carboxylic acid],12.7
8,"O=C(NC1(C(=O)O)CCCC1)c1ccc(COc2ccc(-c3ccccc3)cc2)o1 [Example 34, 1-{[5-(Biphenyl-4-yloxymethyl)-furan-2-carbonyl]-amino}-cyclopentane carboxylic acid]",16.3
9,"COc1ccc(-c2ccc(OCc3cccc(C(=O)O)c3)cc2)cc1 [Example 7, 3-(4′-Methoxy-biphenyl-4-yloxymethyl)-benzoic acid]",9.6
10,"O=C(O)c1csc(COc2ccc(-c3ccccc3)cc2Cl)n1 [Example 22, 2-(3-Chloro-biphenyl-4-yloxymethyl)-thiazole-4-carboxylic acid]",14.9
